Consider eleven compounds from patent US6747009B2, “Peptidomimetic glutathione analogs” (Universiteit Leiden, priority 2002, dated 2004).

Numbered stars: 1 amine (or outer) side, 2 acyl side, 3 side chain; on linkers, the order of the positions; unused ones are H or OH. Square brackets hold non-standard residues; d marks the D form. Peptide text beside a SMILES is read from it. * marks the point of attachment. ξ: configuration not given here. γGlu = O=C(O)[C@H](CCC(=O)[*:2])N[*:1]; ξPhg = NC(C(=O)O)c1ccccc1; Bn = c1ccc(C*)cc1

One data set deals with T1, human GSTP1-1 (Homo sapiens, UniProt P09211).
T1 construct: purchased PanVers Corporation (Madison, Wis., USA)
In words: GST inhibition assay (CDNB conjugation), Ki and % inhibition. Type of data set: biochemical. As to conditions: for inhibition at 50 µM: 1 mM GSH, 1 mM CDNB, 50 μM inhibitor, relative to non-inhibited rate. Here is the method: (§1) Human recombinant GST isoenzymes A1-1, M1-1 and P1-1 were used for the GST inhibition assays. Experiments were performed according to Habig et al; (1974), J. Biol. Chem. 249, 7130-7139, modified for a 96-wells plate-reader assay. The purified human GST isoenzymes (10-20 ng/ml) were incubated with or without inhibitor (50 μM) in the presence of 8 different concentrations (50 μM-4 mM) GSH at 37° C. in 0.1 M potassium phosphate buffer pH 6.5/1 mM EDTA. The reaction was initiated by addition of CDNB in ethanol (final concentration 1 mM, 1% ethanol in assay mix), after which the formation of GS-DNB was spectrophotometrically monitored at 340 nm. Reaction rates were corrected for the non-enzymatic conjugate formation. Kt values (table 1) were determined using the Km, app method according to Kakkar et al. (1999), Drug Metab. Dispos. 27, 756-762; Kakkar et al. (2000), J. Pharmacol. Exp. Ther. 293, 861-869. Experiments were performed three times with quadruple measurements.

Another data set has as its target T2, human GSTM1-1 (Homo sapiens, UniProt P09488).
T2 construct: purchased PanVers Corporation (Madison, Wis., USA)
T2 sequence (P09488 2-218 limits assumed): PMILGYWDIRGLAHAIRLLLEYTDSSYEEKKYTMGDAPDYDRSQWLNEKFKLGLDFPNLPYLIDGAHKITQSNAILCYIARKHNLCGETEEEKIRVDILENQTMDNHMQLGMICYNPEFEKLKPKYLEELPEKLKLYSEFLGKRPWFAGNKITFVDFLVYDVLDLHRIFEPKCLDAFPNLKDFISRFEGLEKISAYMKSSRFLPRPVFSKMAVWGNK
In words: GST inhibition assay (CDNB conjugation), Ki determination. Type of data set: biochemical. As to conditions: human recombinant GSTM1-1; ± SD; 50 μM inhibitor, 50 μM-4 mM GSH, 1 mM CDNB, pH 6.5. Here is the method: as §1

A further data set has as its target T3, human GSTA1-1 (Homo sapiens, UniProt P08263).
T3 construct: purchased PanVers Corporation (Madison, Wis., USA)
T3 sequence (P08263 1-222): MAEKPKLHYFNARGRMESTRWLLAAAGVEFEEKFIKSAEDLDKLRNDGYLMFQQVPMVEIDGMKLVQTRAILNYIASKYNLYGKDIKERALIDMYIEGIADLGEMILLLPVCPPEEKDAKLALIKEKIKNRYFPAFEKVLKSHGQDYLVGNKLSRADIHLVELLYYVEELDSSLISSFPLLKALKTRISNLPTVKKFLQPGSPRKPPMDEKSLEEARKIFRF
The description is as above. Type of data set: biochemical. As to conditions: human recombinant GSTA1-1; ± SD; 50 μM inhibitor, 50 μM-4 mM GSH, 1 mM CDNB, pH 6.5. Here is the method:
as §1

Data set [1] has as its system rat liver cytosolic GSTs (S100). In words: Inhibition of rat liver cytosolic GSTs (S100), CDNB conjugation. The data set is classed as biochemical. As to conditions: S100, 1 mM GSH, 1 mM CDNB, pH 6.5, six inhibitor concentrations. Here is the method:
Inhibition of GST mediated CDNB-conjugation was tested at pH=6.5, in the presence of non-limiting concentrations of GSH (1 mM) and CDNB (1 mM). The shown data are averages of three separate determinations. For clarity, error-bars were not included. […] Open markers with dotted lines indicate γGT sensitive compounds, closed markers with closed lines are γGT stabilized structures.
Freshly isolated rat livers were emulsified in 0.1M KCl using a Potter-Elvehjem homogeniser. After initial centrifugation for 30 minutes at 9000 g, the resulting supernatant was subjected to a second centrifugation for 75 minutes at 10^5 g. The cytosolic protein containing supernatant (S100) was used for the GST inhibition experiments. GST inhibition experiments were performed. All solutions were kept on ice until use. Various concentrations of the inhibitions were incubated at 37° C. with rat liver cytosol (1 μl, containing […] of total protein) in sodium-phosphate buffer, pH 6.5, supplemented with 0.1 mM EDTA and 1 mM GSH. Reaction was started by adding 4 μL CDNB in ethanol (final concentration=1 mM, maximal ethanol content=2% v/v). Formation of the GS-CDNB conjugate was followed at 340 nm for 5 minutes. Initial reaction velocities were corrected for the spontaneous (not GST catalyzed) reaction rates. Inhibition was determined as percentage of the non-inhibited reaction rate. Experiments were performed three times with duplicate measurements.
GST inhibition was tested at six concentrations of the GS-EA mimics.

Data set [2] has as its system bovine kidney γ-glutamyl transpeptidase. In words: Stability towards γ-glutamyl transpeptidase (RP-HPLC disappearance of parent). Type of data set: in vitro ADME. As to conditions: pH 7.4. Here is the method: Peptide isosteres were incubated with 0.25 mg/ml bovine γ-glutamyltranspeptidase in 0.1M Tris-HCl buffer pH=7.4. At the appropriate time-point a sample (100 μL) was taken, heat inactivated and stored on ice until HPLC analysis. Disappearance of the indicated compounds was determined by RP-HPLC. Open markers indicate γGT sensitive compounds, closed markers are γGT stabilized.
The rate of degradation was determined by incubating 250 μM of GluPhg-Benzyl, RedPhg-Benzyl and UtPhg-Benzyl at 37° C. with 0.25 mg/ml bovine kidney γ-glutamyl transpeptidase in 0.1 M Tri-HCl buffer, pH 7.4, supplemented with 0.1 mM EDTA. At selected time-intervals, a 100 μL sample was taken, heat-inactivated, and stored on ice until HPLC-analysis. Analysis was performed by RP-HPLC on an Altech Platinum C18 column, using 50 mM ammonium acetate buffer pH 3.8, supplemented with 10-20% acetonitrile (optimized for the various peptide analogues) as eluent. Disappearance of the parent peak was determined by UV absorbency at […]. Remaining percentage of the parent compounds was determined as ratio of peak areas relative to the initial (t=0min) value.
The rate of degradation was determined by incubating 250 μM of the GS-EA analogues at 37° C. with 0.25 mg/ml bovine kidney γ-glutamyltranspeptidase in 0.1M Tris-HCl buffer, pH=7.4, supplemented with 0.1mM EDTA. At selected time-intervals, a 100 μL sample was taken, heat-inactivated, and stored on ice until HPLC-analysis. Analysis was performed by RP-HPLC on an Alltech Platinum C18 column, using 50mM ammonium acetate buffer pH=3.8, supplemented with 10-20% acetonitrile (optimized for the various peptide analogues) as eluent. Disappearance of the […] peak and emergence of the corresponding dipeptide-EA conjugate was detected by UV absorbency at 270 nm. Remaining percentage of the parent compounds was determined as ratio of peak areas relative to the initial (t=0 min) value. Results were corrected for non-peptidase mediated degradation of the ethacrynic acid conjugates.

Another data set concerns VCREMS cells. In words: Modulation of thiotepa cytotoxicity (cell proliferation by DNA content). Type of data set: cell-based. As to conditions: read-out: IC50 value of thiotepa, No Inh. Here is the method:
(§2) Cells (MCF7, VCREMS, 3 MTLn3/neo clones and 3 MTLn3/GSTP1-1 clones) were seeded at 10^4 cells/well in 24-wells polyethylene culture dishes. […] Various concentrations (3 μM-10 mM) of thiotepa (in serum-free medium) were added. After 4 hrs at 37° C., cells were washed twice with PBS, and subsequently incubated for 72 hours in culture medium (in absence of inhibitor). The cells were then rinsed once with BPS and lysed by repeated freeze-thaw cycles in 200 μl water, followed by homogenization on a rotary shaker. […] Stained DNA was measured by spectrofluorometry (excitation: 360 nm, emission 465 nm). A calibration curve of calf thymus DNA was used to determine total DNA quantities. Growth curves were calculated using the IC50 module of the enzyme kinetics program Grafit (version 3.0, Erithacus Software Ltd.).

The subject of a further data set is MTLn3/Neo cells. The data set is described as above. As to conditions: read-out: IC50 value of thiotepa, No Inh. The data set is classed as cell-based. Here is the method:
as §2

The test system of a further data set is MCF7 cells. Described as above. The data set is classed as cell-based. As to conditions: Homo sapiens, MCF7, read-out: IC50 value of thiotepa, No Inh. Here is the method:
as §2

Another data set concerns MTLn3/GSTπ cells. Described as above. As to conditions: read-out: IC50 value of thiotepa, No Inh. Type of data set: cell-based. Here is the method: as §2
The next data set relates to JNK in MTLn3 cells. In words: JNK activation (phospho-JNK immunoblot). The data set is classed as cell-based. As to conditions: MTLn3/Neo and MTLn3/GSTπ; 50 μM Et2-RP-Bzl, Et2-UrP-Bzl or 20 μM TER199; 8 hours. Here is the method: Confluent monolayers of VCREMS, MTLn3/Neo (3 clones) and MTLn3/GSTπ (3 clones) cells in 12-well culture dishes were exposed for 8 or 16 hours to 50 μM of Et2-RP-Bzl, Et2-UrP-Bzl or 20 μM TER199 (all di-ethyl esters) in full medium at 37° C. Cells were then washed and subsequently scraped in ice-cold PBS. For MTLn3 cells, suspensions of the three different neo and three different GSTπ clones were combined. After centrifugation (10 min, 250 g, 4° C.), the cells were lysed by ultrasonication in cold TSB (10 mM Tris, 250 mM sucrose, 1 mM EGTA, pH 7.4), containing protease inhibitors (50 mM Na3VO4, 10 μg/ml leupeptin, 10 μg/ml pepstain, 1 mM phenylmethylsulfonylfuloride). Protein concentration was determined using the Bradford protein assay, using IgG as a standard.
For GSTπ blotting, non-reducing and non-denaturing conditions were used to keep GSTP in its original (homodimer) state. JNK blots were subjected to standard Western blotting sample pre-treatment protocols. Twenty micrograms of total cellular protein was separated by SDS-polyacrylamide gel electrophoresis and subsequently transferred to polyvinylidene difluoride membrane (Millipore). […] Active JNK was detected by an alkaline phosphatase coupled goat antibody, which was visualized with the Tropix kit (PerkinElmer Life Sciences).
In general terms: A western blot detects proteins with antibodies after separation by electrophoresis.

Setting [3] is: 250 μM compound, 0.25 mg/ml bovine kidney γGT, 37° C.

T1 sequence (P09211 2-210 limits assumed): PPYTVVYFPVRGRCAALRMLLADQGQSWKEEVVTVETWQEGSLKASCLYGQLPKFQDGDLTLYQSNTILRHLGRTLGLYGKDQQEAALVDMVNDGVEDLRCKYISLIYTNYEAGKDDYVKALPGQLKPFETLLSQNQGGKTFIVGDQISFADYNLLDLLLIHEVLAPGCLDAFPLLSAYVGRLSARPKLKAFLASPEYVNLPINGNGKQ

In the case of `N[C@@H](CCC(=O)N[C@@H](CSCc1ccccc1)C(=O)NC(C(=O)O)c1ccccc1)C(=O)O` (stereo partly drawn) [GluPhg-Benzyl (I), γ-L-glutamyl-L-cysteinyl(benzyl)-D-phenylglycine, reference compound] (γGlu-Cys(Bn)-[ξPhg]-OH), the inhibition constant Ki (as a rule, the equilibrium dissociation constant of an inhibitor or competing ligand from its target) at human GSTP1-1 was 0.8 ± 0.3 µM; on human GSTM1-1, 21 ± 4 µM; on human GSTA1-1, 23 ± 6 µM.
Turning to `CN(C(=O)CC[C@H](N)C(=O)O)[C@@H](CS)C(=O)NCC(=O)O` [III, γ-Glu[MeCys-Gly-OH]—OH], the “inhibition of rat liver cytosolic GSTs (in words)” value (shortened to “inhibition … (in words)”) in data set [1] is reported as “a decrease in inhibition was seen”.
For H-Glu[Ψ(CH2NH)-Cys(EA)-Gly-OH]—OH [V], the “inhibition … (in words)” value in data set [1] is on record as “efficient γGT stable inhibitors”.
As for H-Glo[Cys(EA)-Gly-OH]—OH [VI], the “inhibition … (in words)” value in data set [1] is given as “efficient γGT stable inhibitors”.
For the compound `N[C@@H](CCCN[C@@H](CSCc1ccccc1)C(=O)NC(C(=O)O)c1ccccc1)C(=O)O` (stereo partly shown) [RedPhg-Benzyl (II)], the inhibitory constant (Ki) on human GSTP1-1 was 6 ± 3 µM; at human GSTM1-1, 29 ± 6 µM; at human GSTA1-1, 55 ± 11 µM. The inhibition – broadly, the percentage by which the read-out fell short of the control – at 50 µM against human GSTP1-1 came to 81%.
γ-Glu[Cys(EA)-Src-OH]—OH [II]: in [1], the “inhibition … (in words)” value was “comparable inhibition pattern to compound I”. Moreover, in data set [2], the “t½ of γGT mediated hydrolysis” value is given as “approximately equal to the half-life of GS-EA”.
With `CCC(CSC[C@H](NC(=O)CC[C@H](N)C(=O)O)C(=O)NCC(=O)O)C(=O)c1ccc(OCC(=O)O)c(Cl)c1Cl` (stereo partly shown) [I, γ-Glu[Cys(EA)-Gly-OH]—OH, reference compound], in data set [2] (setting [3]), the “stability towards γGT (in words)” value is reported as “cleaved rapidly” and the “time to complete degradation of the GSH backbone by γGT” value is no more than 20 min.
As to `N[C@@H](COC(=O)N[C@@H](CSCc1ccccc1)C(=O)NC(C(=O)O)c1ccccc1)C(=O)O` (stereo partly shown) [UrPhg-Benzyl (III), H-Glo[Cys(Bzl)-Phg-OH]-OH], the results for the Ki on human GSTP1-1, on human GSTM1-1 and on human GSTA1-1 were 3 ± 2 µM, 16 ± 2 µM and 29 ± 4 µM, respectively. In addition, the inhibition at 50 µM against human GSTP1-1 was found to be 93%.
Consider `S=P(N1CC1)(N1CC1)N1CC1` [thiotepa], for which the IC50 (commonly the midpoint of a concentration-inhibition curve) in the data set with VCREMS cells was 2840 ± 1100 µM; in the data set with MTLn3/Neo cells it was 164 ± 9 µM; in the data set on MCF7 cells, 699 ± 50 µM; in the data set with MTLn3/GSTπ cells, 219 ± 21 µM.
Regarding “γ-Glu[2-amino-1-mercapto(S-EA)-6-hexanoic acid]-OH [IV]”, the “inhibition … (in words)” value in [1] is “poor inhibitor of cytosolic GSTs”. The “stability towards γGT (in words)” value in [2] (setting [3]) is “very sensitive towards γGT mediated cleavage”.
For the compound `CCOC(=O)[C@@H](N)CCC(=O)N[C@@H](CSCc1ccccc1)C(=O)N[C@@H](C(=O)OCC)c1ccccc1` [TER199], in the data set on JNK in MTLn3 cells, the “phospho-JNK (JNK1, JNK2) formation” value is “a small band appeared just below the 54 kDa active JNK2 band”.
